Assay results: patent US20150080337A1, “N-CYCLOALKYL-N-[(TRISUBSTITUTEDSILYLPHENYL)METHYLENE]-(THIO)CARBOXAMIDE DERIVATIVES” (BAYER CROPSCIENCE, priority 2012, published 2015)

Legend:
Septoria tritici = test: In vivo preventive test on Septoria tritici (wheat); conditions: 500 ppm of active ingredient; wheat plants sprayed 24 hours before contamination; grading 24 days after contamination vs control plants
Experimental: (§1) The active ingredients tested are prepared by homogenization in a mixture of acetone/tween/DMSO, and then diluted with water to obtain the desired active material concentration.
(§2) Wheat plants (“Scipion” variety), sown in starter cups on a 50/50 peat soil pozzolana substrate and grown at 22° C., are treated at the 1 leaf stage (10 cm height) by spraying with the active ingredient prepared as described above. Plants, used as controls, are treated with the mixture of acetone/tween/DMSO/water not containing the active material.
After 24 hours, the plants are contaminated by spraying the leaves with an aqueous suspension of cryopreserved Septoria tritici spores (500 000 spores per mL). The contaminated wheat plants are incubated for 72 hours at 18° C. and at 100% relative humidity, and then for 21 days at 90% relative humidity.
Grading (% of efficacy) is carried out 24 days after the contamination, in comparison with the control plants.
Under these conditions, good (at least 70%) to total protection is observed at a dose of 500 ppm of active ingredient with the following compounds from table F: […]

[1] = log P by HPLC on reversed-phase column (C 18), EEC Directive 79/831 Annex V.A8; assay type: physicochemical; conditions: Table 1, compounds of formula (I); HPLC C 18, 40° C., 0.1% aqueous formic acid and acetonitrile, gradient 10% to 90% acetonitrile
Experimental: In table 1, the log P values were determined in accordance with EEC Directive 79/831 Annex V.A8 by HPLC (High Performance Liquid Chromatography) on a reversed-phase column (C 18), using the method described below:
Temperature: 40° C.; Mobile phases: 0.1% aqueous formic acid and acetonitrile; linear gradient from 10% acetonitrile to 90% acetonitrile.
Calibration was carried out using unbranched alkan-2-ones (comprising 3 to 16 carbon atoms) with known log P values (determination of the log P values by the retention times using linear interpolation between two successive alkanones). lambda-max-values were determined using UV-spectra from 200 nm to 400 nm and the peak values of the chromatographic signals.
In table 2, M+H (Apcl+) and log P are defined as for table 1.

Sphaerotheca fuliginea = test: In vivo test on Sphaerotheca fuliginea (cucurbits powdery mildew); conditions: 500 ppm of active ingredient; gherkin plants sprayed 24 hours before contamination; grading 12 days after contamination vs control plants
Experimental: (§3) The active ingredients tested are prepared by homogenization in a mixture of acetone/tween/DMSO and then diluted with water to obtain the desired active material concentration.
Gherkin plants (“Vert petit de Paris” variety), sown in starter cups on a 50/50 peat soil-pozzolana substrate and grown at 24° C., are treated at the Z11 cotyledon stage by spraying with the active ingredient prepared as described above. Plants, used as controls, are treated with the mixture of acetone/tween/DMSO/water not containing the active material.
After 24 hours, the plants are contaminated by spraying the cotyledons with an aqueous suspension of Sphaerotheca fuliginea spores (100 000 spores per mL). The spores are collected from infected plants. The contaminated gherkin plants are incubated at about 20° C. and at 70-80% relative humidity.
(§4) Grading (% of efficacy) is carried out 12 days after the contamination, in comparison with the control plants.
Under these conditions, good (at least 70%) to total protection is observed at a dose of 500 ppm of active ingredient with the following compounds from table A: […]

Alternaria brassicae = test: In vivo preventive test on Alternaria brassicae (leaf spot on radish); conditions: 500 ppm of active ingredient; radish plants sprayed 24 hours before contamination; grading 6 days after contamination vs control plants
Experimental: as §1
Radish plants (“Pernod Clair” variety), sown in starter cups on a 50/50 peat soil pozzolana substrate and grown at 17° C., are treated at the cotyledon stage by spraying with the active ingredient prepared as described above. Plants, used as controls, are treated with the mixture of acetone/tween/DMSO/water not containing the active material.
After 24 hours, the plants are contaminated by spraying the cotyledons with an aqueous suspension of Alternaria brassicae spores (50 000 spores per mL). The spores are collected from a 15-day-old culture. The contaminated radish plants are incubated at 20° C. and at 100% relative humidity.
Grading (% of efficacy) is carried out 6 days after the contamination, in comparison with the control plants.
Under these conditions, good (at least 70%) to total protection is observed at a dose of 500 ppm of active ingredient with the following compounds from table D: […]

Puccinia recondita = test: In vivo test on Puccinia recondita (brown rust); conditions: 500 ppm of active ingredient; wheat plants sprayed 24 hours before contamination; grading 12 days after contamination vs control plants
Experimental: as §1, §2
(§5) After 24 hours, the plants are contaminated by spraying the leaves with an aqueous suspension of Puccinia recondita spores (100 000 spores per mL). The spores are collected from an infected plant and are suspended in water containing 2.5 mL/L of Tween 80 at 10%. The contaminated wheat plants are incubated for 24 hours at 20° C. and at 100% relative humidity, and then for 10 days at 20° C. and at 70-80% relative humidity.
as §4
Under these conditions, good (at least 70%) to excellent (at least 90%) protection is observed at a dose of 500 ppm of active ingredient with the following compounds from table C: […]

Uromyces appendiculatus = test: In vivo preventive test on Uromyces appendiculatus (bean rust); conditions: 500 ppm of active ingredient; bean plants sprayed 24 hours before contamination; grading 11 days after contamination vs control plants
Experimental: as §1
Bean plants (“Saxa” variety), sown in starter cups on a 50/50 peat soil pozzolana substrate and grown at 24° C., are treated at the 2 leaf stage (9 cm height) by spraying with the active ingredient prepared as described above. Plants, used as controls, are treated with the mixture of acetone/tween/DMSO/water not containing the active material.
as §5, with “of Uromyces appendiculatus” for “of Puccinia recondita”, “spores (150” for “spores (100”, “from” for “from an”, “infected plants” for “infected plant”, “contaminated bean” for “contaminated wheat”
Grading (% of efficacy) is carried out 11 days after the contamination, in comparison with the control plants.
Under these conditions, good (at least 70%) to total protection is observed at a dose of 500 ppm of active ingredient with the following compounds from table G: […]

Pyrenophora teres = test: In vivo test on Pyrenophora teres (barley net blotch); conditions: 500 ppm of active ingredient; barley plants sprayed 24 hours before contamination; grading 14 days after contamination vs control plants
Experimental: as §1
Barley plants (“Plaisant” variety), sown in starter cups on a 50/50 peat soil pozzolana substrate and grown at 22° C., are treated at the 1 leaf stage (10 cm height) by spraying with the active ingredient prepared as described above. Plants, used as controls, are treated with the mixture of acetone/tween/DMSO/water not containing the active material.
After 24 hours, the plants are contaminated by spraying the leaves with an aqueous suspension of Pyrenophora teres spores (12 000 spores per mL). The spores are collected from a 12-day-old culture. The contaminated barley plants are incubated for 48 hours at 20° C. and at 100% relative humidity, and then for 12 days at 20° C. at 70-80% relative humidity.
Grading (% of efficacy) is carried out 14 days after the contamination, in comparison with the control plants.
Under these conditions, good (at least 70%) to excellent (at least 90%) protection is observed at a dose of 500 ppm of active ingredient with the following compounds from table B: […]

Botrytis cinerea = test: In vivo preventive test on Botrytis cinerea (grey mould); conditions: 500 ppm of active ingredient; gherkin plants sprayed 24 hours before contamination; grading 4 to 5 days after contamination vs control plants
Experimental: as §3
Gherkin plants (“Vert petit de Paris” variety), sown in starter cups on a 50/50 peat soil pozzolana substrate and grown at 24° C., are treated at the Z11 cotyledon stage by spraying with the active ingredient prepared as described above. Plants, used as controls, are treated with the mixture of acetone/tween/DMSO/water not containing the active material.
After 24 hours, the plants are contaminated by spraying the cotyledons with an aqueous suspension of cryopreserved Botrytis cinerea spores (50 000 spores per mL). The spores are suspended in a nutrient solution composed of 10 g/L of PDB, 50 g/L of D-Fructose, 2 g/L of NH4NO3 and 1 g/L of KH2PO4. The contaminated gherkin plants are incubated at 17° C. and at 90% relative humidity.
Grading (% of efficacy) is carried out 4 to 5 days after the contamination, in comparison with the control plants.
Under these conditions, good (at least 70%) is observed at a dose of 500 ppm of active ingredient with the following compound from table E: […]

logP [1] | Structure (SMILES) | Efficacy (Septoria tritici) [%] | Efficacy (Sphaerotheca fuliginea) [%] | Efficacy (Alternaria brassicae) [%] | Efficacy (Puccinia recondita) [%] | Efficacy (Uromyces appendiculatus) [%] | Efficacy (Pyrenophora teres) [%] | Efficacy (Botrytis cinerea) [%]
5.68 | Cn1nc(C(F)F)c(C(=O)N(Cc2ccccc2[Si](C)(C)c2ccc(Oc3ccccc3)cc2)C2CC2)c1F [I.19] | 100 | 100 |  | 93 | 96 | 97 | 
5.31 | Cn1cc(C(=O)N(Cc2ccccc2[Si](C)(C)c2ccc(Oc3ccccc3)cc2)C2CC2)c(C(F)F)n1 [I.20] | 75 | 83 |  |  | 89 | 79 | 

The next lines start with the compound.

Structure (SMILES) | logP [1] | Efficacy (Septoria tritici) [%] | Efficacy (Sphaerotheca fuliginea) [%] | Efficacy (Alternaria brassicae) [%] | Efficacy (Puccinia recondita) [%] | Efficacy (Uromyces appendiculatus) [%] | Efficacy (Pyrenophora teres) [%] | Efficacy (Botrytis cinerea) [%]
Cn1nc(C(F)F)c(C(=S)N(Cc2ccccc2[Si](C)(C)c2ccc(Cl)cc2)C2CC2)c1F [I.8] | 3.09 | 97 | 100 | 88 | 88 | 97 |  | 
Cn1nc(C(F)F)c(C(=O)N(Cc2ccccc2[Si](C)(C)c2cccc3ccccc23)C2CC2)c1F [I.25] | 5.19 | 100 | 100 | 80 |  | 86 |  | 
C[Si](C)(c1ccccc1CN(C(=O)c1ccsc1I)C1CC1)c1cccc2ccccc12 [I.29] | 5.84 |  |  |  |  |  |  | 75
Cn1cc(C(=O)N(Cc2ccccc2[Si](C)(C)c2cccs2)C2CC2)c(C(F)F)n1 [I.31] | 4.24 | 96 | 100 |  | 75 | 96 |  | 
